The source of these data is patent US9902934B2, “Human keratinocytes PTCH1 cell line” (GALDERMA RESEARCH & DEVELOPMENT, priority 2011, dated 2018).

The subject of assay [1] is SHH/PTCH pathway. In words: Activation of PTCH1-luciferase reporter activity in SK PTCH1-Luc E6/E7 keratinocytes. Format: cell-based, human. Conditions: SK PTCH1-Luc E6/E7 cells, cultured 24 hours. Here is the method: (§1) Purmorphamine (SMO agonist) and GDC-0449 (SMO antagonist) were diluted in DMSO at stock concentrations of 50 mM and 10 mM, respectively. To avoid side effects and toxicity, the final concentration of DMSO was fixed to 0.1% DMSO.
(§2) Lysis buffer and luciferase reagents were from the Steady-Glo® Luciferase Assay System kit (Promega, #E2520). Plates were read on a […] (TopCount, Perkin Elmer).
(§3) Experimental conditions of activation using SMO agonist of the PTCH1-Luc-E6 E7 reporter cells were first set up for optimisation. The SK PTCH1-Luc E6/E7 cells were plated in 96-well at various densities (5000 to 50000 cells/well) in opaque plates (Greiner, ref: 655083). In parallel, in order to follow cell growth, confluency, and lysis, the cell line was also seeded in transparent 96 wells plates (Greiner 655098). Serial dilutions of purmorphamine were prepared (0.2 nM<Conc.<50 μM). Results were matched with EC50 and IC50 values obtained in the SHH-Light II cell line.
Once experimental conditions optimized, SK PTCH1-Luc E6/E7 cells were plated at 45.000 cells per well, culture for 24 hours then treated for 48 hours by serial dilutions of purmorphamine. Each condition was done in duplicate and the experiment was performed at least twice. SK PTCH1-Luc E6/E7 cells responded to activation of the SHH/PTCH pathway when treated with purmorphamine and the EC50 value was determined at 1 μM (FIG. 3).
(In a reporter assay the amount or activity of a reporter protein is the signal.)

The subject of assay [2] is SHH/PTCH pathway. The assay is described as follows: Inhibition of purmorphamine-induced luciferase activity in SK PTCH1-Luc E6/E7 keratinocytes. Format: cell-based. Conditions: Homo sapiens, Keratinocyte, SK PTCH1-Luc E6/E7 cells, co-treatment 48 hours with 2.5 μM purmorphamine (EC80). As to the method:
as §1, §2, §3
Co-treatment of SK PTCH1-Luc E6/E7 cells with purmorphamine and GDC-0449 led to the inhibition of the luciferase activity (FIG. 5). Under these circumstances, the IC50 of GDC-0449 was determined at 0.2 μM.

Molecules are shown by their SMILES. pEC50, pIC50: −log10 of the molar value.

As a reminder, the pEC50 is the EC50 on a negative log10 scale, so that one unit is a factor of ten. Read a high pEC50 as a low EC50. `c1ccc2c(Oc3nc(Nc4ccc(N5CCOCC5)cc4)c4ncn(C5CCCCC5)c4n3)cccc2c1` [purmorphamine, Purmorphamine] had a pEC50 in the assay on SHH/PTCH pathway [1] (Homo sapiens, Keratinocyte, 45.000 cells per well, treated 48 hours) of 6.00. In addition, the “effective concentration for 80% activation (EC80)” value in the assay with SHH/PTCH pathway [1] (45.000 cells/well, treated 48 hrs) worked out at 2.5 µM. What is called pIC50 is the negative decadic logarithm of the IC50, by convention in mol/L. Take `CS(=O)(=O)c1ccc(C(=O)Nc2ccc(Cl)c(-c3ccccn3)c2)c(Cl)c1` [GDC-0449]: in the assay with SHH/PTCH pathway [2], the pIC50 is 6.70.
